Legend:
Type in all cases: cell-based, human
[1] = tested on: HNSCC tumor tissue; assay: IHC for CD8, PD-L1, PD-1 and FOXP3 positive cells in tumor microenvironment platform; conditions: T3
Procedure: The effect of Pembrolizumab and Nivolumab on CD8^+ T cell tumor infiltration was then evaluated. Tumor sections from the same patient cultured for 72 hours in the tumor microenvironment platform were treated with Pembrolizumab, Nivolumab, or IgG as control and stained for H&E, Ki67, Caspase 3, and CD8 at day 3 in culture (T3). Baseline staining was determined at TO. […] To further elucidate the effects of the anti-PD-1 antibodies, FACS analysis was performed on tumor tissue from patient 2941 and patient 2942 treated with either Pembrolizumab, Nivolumab, or IgG control. […] By contrast, there was no effect of either Pembrolizumab or Nivolumab on CD8^+ T cell infiltration for patient 2942, further highlighting the differential response between individuals to PD-1 blockade. CD8^+ T cell infiltration was evaluated in the tumor microenvironment platform with tumor tissue from the same patient, and comparisons for control vs Nivo, control vs Pembro, Nivo vs Pembro, and control vs Nivo vs Pembro for multiple patients are shown in FIG. 6 (each line represents results from the tumor microenvironment platform cultured with tumor tissue from a single individual).
The effect of Pembrolizumab and Nivolumab on the expression of immunoregulatory molecules, including PD-1 and FOXP3, in the tumor microenvironment platform tumor microbed was evaluated. Tumor sections from the same patient cultured for 3 days (72 hours) in the tumor microenvironment platform were treated with Pembrolizumab, Nivolumab, or IgG control and stained for CD8, FOXP3, and PD-1 at day 3 in culture (T3). Baseline staining was determined at TO. Results are shown in FIG. 7A for tumor sections from a predicted responder to Pembrolizumab or Nivolumab and FIG. 7B for a predicted non-responder to Pembrolizumab or Nivolumab, as characterized by M-score. There was in increase in the number of PD-1^+ cells in the tumor microbed for both Pembrolizumab and Nivolumab, which was to a greater degree in the case of Nivolumab, when compared to IgG control in the responder (FIG. 7A). There was no change for either Pembrolizumab and Nivolumab in the non-responder (FIG. 7B). The numbers of PD-L1^+ tumor cells, PD-1^+ T cells, FOXP3^+ T-regulatory cells, and CD8^+ T cells were evaluated using the tumor microenvironment platform with tumor tissue from the same patient in Nivolumab, Pembrolizumab, and control conditions, and are summarized in Table 3. Comparisons for control vs Nivo, control vs Pembro, Nivo vs Pembro, and control vs Nivo vs Pembro for multiple patients are shown in FIG. 8 (each line represents results from the tumor microenvironment platform cultured with tumor tissue from a single individual).

[2] = tested on: PBNCs; assay: FACS analysis for CD25, CD127 and FOXP3 expression, PBNCs
Procedure: The effect of treatment with Nivolumab and Pembrolizumab on CD25, CD127, and FOXP3 expression was then evaluated. Tumor sections or PBNCs from the same patient cultured for 3 days in the tumor microenvironment platform were treated with Pembrolizumab, Nivolumab, or IgG control for one day followed by FACS analysis for expression of CD25, CD127, and FOXP3.

[3] = tested on: HNSCC tumor tissue; assay: M-score clinical outcome predictor: tumor microenvironment platform assays (WST-1, LDH, ATP, glucose uptake, Caspase 3/8, Ki67, H&E) input into machine-trained algorithm; parameters: scale not given here
From the text: Utilizing primary and late stage HNSCC patient samples (n=16) we interrogated phenotypic response to both Pembrolizumab (KEYTRUDA) and Nivolumab (OPDIVO), two FDA-approved PD-1 inhibitors, as single agents on the tumor microenvironment platform with tumor tissue from the same patient. To do this, we assayed tumor proliferation (Ki67) and apoptosis (active caspase-3), in addition to using a comprehensive panel of immunological assays to evaluate changes in the immune compartment (CD8, CD45, FOXP3, CXCR4, CD68, PDL1, PD1) and cytokine profile (IL6, IL8, IFN-g and IL12).

- M-score ([3]; Patient ID 2918): 27
- M-score ([3]; Patient ID 2928): 19
- M-score ([3]; Patient ID 2941): 41
- M-score ([3]; Patient ID 2948): 12
- M-score ([3]; Patient ID 2949): 11
- M-score ([3]; Patient ID 2956): 10
- M-score ([3]; Patient ID 2978): 33
- M-score ([3]; Patient ID 2981): 6
Substance: Nivolumab
- # cells/field PD-1^+ ([1]; Patient ID 2916, control 0): 0 cells/field
- # cells/field PD-L1^+ ([1]; Patient ID 2916, control 1): 2 cells/field
- # cells/field FOXP3^+ ([1]; Patient ID 2916, control 3): 4 cells/field
- # cells/field CD8^+ ([1]; Patient ID 2916, control 20): 30 cells/field
- # cells/field PD-1^+ ([1]; Patient ID 2918, control 2): 0 cells/field
- # cells/field FOXP3^+ ([1]; Patient ID 2918, control 3): 2 cells/field
- # cells/field CD8^+ ([1]; Patient ID 2918, control 10): 3 cells/field
- # cells/field PD-L1^+ ([1]; Patient ID 2918, control 10): 20 cells/field
- # cells/field PD-1^+ ([1]; Patient ID 2926, control 0): 0 cells/field
- # cells/field PD-L1^+ ([1]; Patient ID 2926, control 3): 3 cells/field
- # cells/field FOXP3^+ ([1]; Patient ID 2926, control 4): 3 cells/field
- # cells/field CD8^+ ([1]; Patient ID 2926, control 25): 20 cells/field
- # cells/field PD-1^+ ([1]; Patient ID 2928, control 0): 0 cells/field
- # cells/field PD-L1^+ ([1]; Patient ID 2928, control 0): 3 cells/field
- # cells/field CD8^+ ([1]; Patient ID 2928, control 4): 15 cells/field
- # cells/field FOXP3^+ ([1]; Patient ID 2928, control 4): 5 cells/field
- # cells/field CD8^+ ([1]; Patient ID 2939, control 0): 2 cells/field
- # cells/field PD-1^+ ([1]; Patient ID 2939, control 0): 0 cells/field
- # cells/field FOXP3^+ ([1]; Patient ID 2939, control 1): 2 cells/field
- # cells/field PD-L1^+ ([1]; Patient ID 2939, control 10): 10 cells/field
- # cells/field PD-1^+ ([1]; Patient ID 2941, control 0): 2 cells/field
- # cells/field FOXP3^+ ([1]; Patient ID 2941, control 3): 2 cells/field
- # cells/field PD-L1^+ ([1]; Patient ID 2941, control 3): 5 cells/field
- # cells/field CD8^+ ([1]; Patient ID 2941, control 5): 3 cells/field
- # cells/field PD-1^+ ([1]; Patient ID 2942, control 0): 0 cells/field
- # cells/field PD-L1^+ ([1]; Patient ID 2942, control 0): 0 cells/field
- # cells/field CD8^+ ([1]; Patient ID 2942, control 3): 1 cells/field
- # cells/field FOXP3^+ ([1]; Patient ID 2942, control 3): 4 cells/field
- # cells/field FOXP3^+ ([1]; Patient ID 2948, control 1): 1 cells/field
- # cells/field PD-1^+ ([1]; Patient ID 2948, control 1): 0 cells/field
- # cells/field PD-L1^+ ([1]; Patient ID 2948, control 10): 1 cells/field
- # cells/field CD8^+ ([1]; Patient ID 2948, control 20): 20 cells/field
- # cells/field PD-1^+ ([1]; Patient ID 2949, control 1): 3 cells/field
- # cells/field FOXP3^+ ([1]; Patient ID 2949, control 5): 5 cells/field
- # cells/field PD-L1^+ ([1]; Patient ID 2949, control 20): 20 cells/field
- # cells/field CD8^+ ([1]; Patient ID 2949, control 50): 35 cells/field
- # cells/field PD-1^+ ([1]; Patient ID 2956, control 0): 0 cells/field
- # cells/field CD8^+ ([1]; Patient ID 2956, control 1): 7 cells/field
- # cells/field PD-L1^+ ([1]; Patient ID 2956, control 2): 3 cells/field
- # cells/field FOXP3^+ ([1]; Patient ID 2956, control 8): 10 cells/field
- # cells/field PD-1^+ ([1]; Patient ID 2963, control 0): 0 cells/field
- # cells/field CD8^+ ([1]; Patient ID 2963, control 6): 4 cells/field
- # cells/field FOXP3^+ ([1]; Patient ID 2963, control 10): 2 cells/field
- # cells/field PD-L1^+ ([1]; Patient ID 2963, control 12): 12 cells/field
- # cells/field PD-1^+ ([1]; Patient ID 2978, control 0): 0 cells/field
- # cells/field FOXP3^+ ([1]; Patient ID 2978, control 1): 1 cells/field
- # cells/field PD-L1^+ ([1]; Patient ID 2978, control 1): 1 cells/field
- # cells/field CD8^+ ([1]; Patient ID 2978, control 12): 17 cells/field
- # cells/field PD-1^+ ([1]; Patient ID 2979, control 0): 0 cells/field
- # cells/field FOXP3^+ ([1]; Patient ID 2979, control 2): 1 cells/field
- # cells/field PD-L1^+ ([1]; Patient ID 2979, control 5): 5 cells/field
- # cells/field CD8^+ ([1]; Patient ID 2979, control 25): 25 cells/field
- # cells/field PD-1^+ ([1]; Patient ID 2980, control 0): 0 cells/field
- # cells/field FOXP3^+ ([1]; Patient ID 2980, control 1): 1 cells/field
- # cells/field PD-L1^+ ([1]; Patient ID 2980, control 8): 1 cells/field
- # cells/field CD8^+ ([1]; Patient ID 2980, control 30): 10 cells/field
- # cells/field FOXP3^+ ([1]; Patient ID 2981, control 0): 1 cells/field
- # cells/field PD-1^+ ([1]; Patient ID 2981, control 0): 0 cells/field
- # cells/field PD-L1^+ ([1]; Patient ID 2981, control 0): 0 cells/field
- # cells/field CD8^+ ([1]; Patient ID 2981, control 1): 15 cells/field
- CD8^+ T cell infiltration (IHC) ([1]; patient 2941, vs IgG control): increased CD8^+ T cell infiltration
- number of PD-1^+ cells in the tumor microbed ([1]; predicted non-responder, vs IgG control): no change
- number of PD-1^+ cells in the tumor microbed ([1]; predicted responder, vs IgG control, to a greater degree in the case of Nivolumab): increase
- CD25^+/FOXP3^− PBMCs (% total cells) ([2]; Non-Responder, control 3.67): 1.40 % total cells
- CD25^+/CD127^+ PBMCs (% total cells) ([2]; Non-Responder, control 14.6): 25.1 % total cells
- CD25^+/CD127^− PBMCs (% total cells) ([2]; Non-Responder, control 15.1): 8.22 % total cells
- CD25^−/FOXP3^− PBMCs (% total cells) ([2]; Non-Responder, control 18.2): 7.90 % total cells
- CD25^+/FOXP3^+ PBMCs (% total cells) ([2]; Non-Responder, control 22.1): 29.0 % total cells
- CD25^−/CD127^+ PBMCs (% total cells) ([2]; Non-Responder, control 26.2): 44.4 % total cells
- CD25^−/CD127^− PBMCs (% total cells) ([2]; Non-Responder, control 44.1): 22.3 % total cells
- CD25^− FOXP3^+ PBMCs (% total cells) ([2]; Non-Responder, control 56.0): 61.7 % total cells
- CD25^+/FOXP3^− PBMCs (% total cells) ([2]; Responder, control 3.04): 8.91 % total cells
- CD25^+/CD127^− PBMCs (% total cells) ([2]; Responder, control 11.7): 6.53 % total cells
- CD25^+/CD127^+ PBMCs (% total cells) ([2]; Responder, control 16.8): 30.4 % total cells
- CD25^+/FOXP3^+ PBMCs (% total cells) ([2]; Responder, control 21.7): 24.0 % total cells
- CD25^−/FOXP3^− PBMCs (% total cells) ([2]; Responder, control 23.2): 29.8 % total cells
- CD25^−/CD127^+ PBMCs (% total cells) ([2]; Responder, control 24.8): 44.2 % total cells
- CD25^−/CD127^− PBMCs (% total cells) ([2]; Responder, control 46.6): 18.9 % total cells
- CD25^− FOXP3^+ PBMCs (% total cells) ([2]; Responder, control 52.1): 37.3 % total cells

Source: patent publication US20200333324A1, “METHOD OF PREDICTING CLINICAL OUTCOME OF ANTICANCER AGENTS” (MITRA RXDX, INC., priority 2017, published 2020)
